Results filed as inconclusive are left out. Active and inactive are the calls of the source.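 How the source made its calls: active means inhibition of the calcium rise above 50%; inconclusive means dimming of resting cell dye signal by over 25%; inactive means inhibition below 50%.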
Test system: TALL-104 thapsigargin calcium, Fura Red flow cytometry
Assay: blockers of intracellular Ca signaling in TALL-104 – Fura Red, TALL-104 cells, CherryPick01, mechanism study for lytic granule exocytosis inhibitor project (AID 720665)
Conditions: hits give high values; dose or concentration not given here

SMILES	inhibition
O=C(CN1C(=O)/C(=C\c2cccc(Br)c2)Oc2ccccc21)NCCCN1CCOCC1	1% (inactive)
Fc1ccc(/C=C\c2nccc3c2[nH]c2ccccc23)cc1	37.7% (inactive)

From PubChem BioAssay AID720665 (NMMLSC, 2013)
